Consider six molecules from patent US20260201008A1, “SECRETIN-DERIVED GLP1R SELECTIVE AGONISTS” (GUBRA A/S, priority 2023, published 2026).

Data set [1] deals with SCTR (Homo sapiens, UniProt P47872). Description: hSCTR potency, cAMP accumulation in CHO-K1 cells stably overexpressing hSCTR. The arrangement: alternatively Euroscreen ES-712-AF; FAST-0161L; host or cells: CHO-K1. The settings on record: cAMP accumulation, CHO-K1 cells overexpressing hSCTR; read-out: hSCTR pEC50 (converted). The format is cell-based. The gist of the method:
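Cells plated at 2000/well in DPBS with 0.05% casein and 0.5 mM IBMX, stimulated 30 min at room temperature with graded compound doses; human secretin as positive control. cAMP read by TR-FRET after 1 h. Purified peptides tested at 11 3-fold dilutions, n=2; EC50 by variable-slope sigmoid fit.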
A general note: cAMP levels reflect the balance of adenylyl cyclase and phosphodiesterase activity.

Data set [2] in a line: Fibril formation of crude library peptides (Thioflavin T). The class given is physicochemical. The arrangement: key: average ThT fluorescence emission at 480 nm (ex 450 nm), raw units. To be noted: Physical stability of peptides. The gist of the method: (§1)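 Crude peptides at 267 μM in 50 mM sodium acetate pH 4.0 or 50 mM sodium phosphate pH 7.0, pre-incubated 1-2 h at room temperature, then 4 μM final ThT added. Turbidity read first as A600. ThT fluorescence (ex 450/em 480 nm) read every 10 min for 72 h at 40° C, with 5 min shaking before each read; fibril formation = average emission.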

Data set [3] can be described thus: Turbidity of crude library peptides (absorbance at 600 nm). To be noted: Physical stability of peptides. The class given is physicochemical. The method in brief: as §1
Data set [4] deals with GLP1R (Homo sapiens, UniProt P43220). In words: hGLP1R potency, cAMP accumulation in CHO-K1 cells stably overexpressing hGLP1R. The format is cell-based. The arrangement: host or cells: CHO-K1. The settings on record: for EC50: cAMP accumulation, CHO-K1 cells overexpressing hGLP1R, read-out: hGLP1R pEC50 (converted); for SCTR EC50/GLP1R EC50 ratio: selectivity for hGLP1R over hSCTR, cAMP accumulation in CHO-K1 cells. The gist of the method:
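CHO-K1 cells stably expressing hGLP1R (2000/well) in DPBS with 0.05% casein and 0.5 mM IBMX were stimulated 30 min at room temperature with graded compound doses; human GLP-1(7-36) served as positive control. cAMP was read by HTRF after 1 h; EC50 came from variable-slope sigmoid fits (purified peptides: 11-point 3-fold, n=2).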

Numbered stars: 1 amine (or outer) side, 2 acyl side, 3 side chain; on linkers, the order of the positions; unused ones are H or OH. Square brackets hold non-standard residues; d marks the D form. Side chains are listed from the residue outwards. Peptide text beside a SMILES is read from it. * marks the point of attachment. C20 diacid = O=C(O)CCCCCCCCCCCCCCCCCCC(=O)*; γGlu = O=C(O)[C@H](CCC(=O)[*:2])N[*:1]; AEEA = NCCOCCOCC(=O)O; Aib = CC(C)(N)C(=O)O

Chain of GLP1R (P43220 24-463): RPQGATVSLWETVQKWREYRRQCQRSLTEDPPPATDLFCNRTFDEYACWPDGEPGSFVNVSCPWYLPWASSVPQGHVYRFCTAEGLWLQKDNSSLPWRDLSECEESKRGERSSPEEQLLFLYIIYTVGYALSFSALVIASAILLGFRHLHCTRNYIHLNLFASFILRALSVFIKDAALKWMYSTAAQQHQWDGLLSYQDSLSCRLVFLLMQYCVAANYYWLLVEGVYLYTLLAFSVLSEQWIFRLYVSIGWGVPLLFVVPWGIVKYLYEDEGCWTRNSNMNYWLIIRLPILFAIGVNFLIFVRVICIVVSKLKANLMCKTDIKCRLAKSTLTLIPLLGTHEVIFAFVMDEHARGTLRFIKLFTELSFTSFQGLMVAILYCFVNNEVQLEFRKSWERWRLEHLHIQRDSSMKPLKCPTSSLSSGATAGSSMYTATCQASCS
Chain of SCTR (P47872 23-440): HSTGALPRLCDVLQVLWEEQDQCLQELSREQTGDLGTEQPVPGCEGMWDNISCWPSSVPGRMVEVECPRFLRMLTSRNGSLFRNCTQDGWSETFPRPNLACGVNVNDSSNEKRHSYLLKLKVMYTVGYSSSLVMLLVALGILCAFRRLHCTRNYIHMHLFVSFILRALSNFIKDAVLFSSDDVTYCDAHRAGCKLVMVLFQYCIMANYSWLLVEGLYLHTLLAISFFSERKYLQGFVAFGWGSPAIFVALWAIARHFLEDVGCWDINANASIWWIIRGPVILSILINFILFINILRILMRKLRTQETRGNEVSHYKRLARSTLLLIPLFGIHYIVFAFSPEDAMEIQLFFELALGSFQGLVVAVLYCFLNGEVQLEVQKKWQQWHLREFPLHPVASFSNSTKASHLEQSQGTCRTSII

As for `CC(C)C[C@H](NC(=O)[C@H](Cc1ccccc1)NC(=O)[C@H](CCCNC(=N)N)NC(=O)[C@H](CCC(N)=O)NC(=O)[C@H](CCC(N)=O)NC(=O)[C@H](C)NC(=O)[C@H](C)NC(=O)[C@H](Cc1ccccc1)NC(=O)[C@H](CCC(=O)O)NC(=O)[C@H](CCCCNC(=O)COCCOCCNC(=O)COCCOCCNC(=O)CC[C@H](NC(=O)CCCCCCCCCCCCCCCCCCC(=O)O)C(=O)O)NC(=O)[C@H](CC(C)C)NC(=O)[C@@H](NC(=O)[C@H](CO)NC(=O)[C@@H](NC(=O)[C@H](CC(=O)O)NC(=O)[C@H](CO)NC(=O)[C@@H](NC(=O)[C@H](Cc1ccccc1)NC(=O)[C@@H](NC(=O)CNC(=O)[C@H](CCC(=O)O)NC(=O)C(C)(C)NC(=O)[C@@H](N)Cc1c[nH]cn1)[C@@H](C)O)[C@@H](C)O)C(C)C)[C@@H](C)O)C(=O)N[C@@H](CCC(=O)O)C(=O)N[C@@H](Cc1c[nH]cn1)C(=O)N[C@@H](CC(C)C)C(=O)N[C@H](C(N)=O)C(C)C` [compound 100] (H-H[Aib]EGTFTSDVSTLK([AEEA-AEEA-γGlu-C20 diacid])EFAAQQRFLEHLV-NH2), the EC50 in data set [1] was 794 nM. For the same molecule, the Fibril formation in data set [2] worked out at 24482. Besides, the “Turbidity (pH 7)” value in data set [3] is listed as 0.08. In data set [4], the EC50 was 0.126 nM and the “SCTR EC50/GLP1R EC50 ratio” value was found to be 6301.

Turning to `CC(C)C[C@H](NC(=O)[C@H](Cc1ccccc1)NC(=O)[C@H](CCCNC(=N)N)NC(=O)[C@H](CCC(N)=O)NC(=O)C(C)(C)NC(=O)[C@H](C)NC(=O)[C@H](C)NC(=O)[C@@H](NC(=O)[C@H](CCC(=O)O)NC(=O)[C@H](CCCCNC(=O)COCCOCCNC(=O)COCCOCCNC(=O)CC[C@H](NC(=O)CCCCCCCCCCCCCCCCCCC(=O)O)C(=O)O)NC(=O)[C@H](CC(C)C)NC(=O)[C@@H](NC(=O)[C@H](CO)NC(=O)[C@@H](NC(=O)[C@H](CC(=O)O)NC(=O)[C@H](CO)NC(=O)[C@@H](NC(=O)[C@H](Cc1ccccc1)NC(=O)[C@@H](NC(=O)CNC(=O)[C@H](CCC(=O)O)NC(=O)C(C)(C)NC(=O)[C@@H](N)Cc1c[nH]cn1)[C@@H](C)O)[C@@H](C)O)C(C)C)C(C)C)[C@@H](C)O)C(=O)N[C@@H](CCC(=O)O)C(=O)N[C@@H](Cc1c[nH]cn1)C(=O)N[C@@H](CC(C)C)C(=O)N[C@H](C(N)=O)C(C)C` [compound 101] (H-H[Aib]EGTFTSDVSVLK([AEEA-AEEA-γGlu-C20 diacid])ETAA[Aib]QRFLEHLV-NH2), the EC50 in data set [1] was 1000 nM; in data set [4], 0.2 nM. In data set [2], this molecule showed a Fibril formation of 8172. Besides, the “Turbidity (pH 7)” value in data set [3] is on record as 0.08. Besides, in data set [4], the “SCTR EC50/GLP1R EC50 ratio” value turned out to be 5030.

Consider `CC(C)C[C@H](NC(=O)[C@H](Cc1ccccc1)NC(=O)[C@H](CCCNC(=N)N)NC(=O)[C@H](CCC(N)=O)NC(=O)[C@@H](NC(=O)[C@H](C)NC(=O)[C@H](C)NC(=O)[C@H](CCC(=O)O)NC(=O)[C@H](CCC(=O)O)NC(=O)[C@H](CCCCNC(=O)COCCOCCNC(=O)COCCOCCNC(=O)CC[C@H](NC(=O)CCCCCCCCCCCCCCCCCCC(=O)O)C(=O)O)NC(=O)[C@H](CC(C)C)NC(=O)[C@@H](NC(=O)[C@H](CO)NC(=O)[C@@H](NC(=O)[C@H](CC(=O)O)NC(=O)[C@H](CO)NC(=O)[C@@H](NC(=O)[C@H](Cc1ccccc1)NC(=O)[C@@H](NC(=O)CNC(=O)[C@H](CCC(=O)O)NC(=O)C(C)(C)NC(=O)[C@@H](N)Cc1c[nH]cn1)[C@@H](C)O)[C@@H](C)O)C(C)C)[C@@H](C)O)[C@@H](C)O)C(=O)N[C@@H](CCC(=O)O)C(=O)N[C@@H](Cc1c[nH]cn1)C(=O)N[C@@H](CC(C)C)C(=O)N[C@H](C(N)=O)C(C)C` [compound 102] (H-H[Aib]EGTFTSDVSTLK([AEEA-AEEA-γGlu-C20 diacid])EEAATQRFLEHLV-NH2), for which the EC50 in data set [1] was 79.4 nM. The molecule further gave a Fibril formation in data set [2] of 6284. The “Turbidity (pH 7)” value in data set [3] amounted to 0.08. Further, in data set [4], the EC50 was 0.01 nM and the “SCTR EC50/GLP1R EC50 ratio” value amounted to 8851.

With `CC(C)C[C@H](NC(=O)[C@H](Cc1ccccc1)NC(=O)[C@H](CCCNC(=N)N)NC(=O)[C@H](CCC(N)=O)NC(=O)[C@H](CC(C)C)NC(=O)C(C)(C)NC(=O)[C@H](C)NC(=O)[C@H](CCC(=O)O)NC(=O)[C@H](CCC(=O)O)NC(=O)[C@H](CCCCNC(=O)COCCOCCNC(=O)COCCOCCNC(=O)CC[C@H](NC(=O)CCCCCCCCCCCCCCCCCCC(=O)O)C(=O)O)NC(=O)[C@H](CC(C)C)NC(=O)[C@H](Cc1ccc(O)cc1)NC(=O)[C@H](CO)NC(=O)C(C)(C)NC(=O)[C@H](CC(=O)O)NC(=O)[C@H](CO)NC(=O)[C@@H](NC(=O)[C@H](Cc1ccccc1)NC(=O)[C@@H](NC(=O)CNC(=O)[C@H](CCC(=O)O)NC(=O)C(C)(C)NC(=O)[C@@H](N)Cc1c[nH]cn1)[C@@H](C)O)[C@@H](C)O)C(=O)N[C@@H](CCC(=O)O)C(=O)N[C@@H](Cc1c[nH]cn1)C(=O)N[C@@H](CC(C)C)C(=O)N[C@H](C(N)=O)C(C)C` [compound 103] (H-H[Aib]EGTFTSD[Aib]SYLK([AEEA-AEEA-γGlu-C20 diacid])EEA[Aib]LQRFLEHLV-NH2), the values for the EC50 in data set [1] and in data set [4] were 10000 nM and 0.00794 nM, respectively. In data set [2], this molecule displayed a Fibril formation of 3646. Besides, the “Turbidity (pH 7)” value in data set [3] is 0.08. Also, in data set [4], the “SCTR EC50/GLP1R EC50 ratio” value was found to be 1181272.

On to `CC[C@H](C)[C@H](NC(=O)[C@H](Cc1ccccc1)NC(=O)[C@H](CCCNC(=N)N)NC(=O)[C@H](CCC(N)=O)NC(=O)[C@H](CC(C)C)NC(=O)[C@H](C)NC(=O)[C@H](C)NC(=O)CNC(=O)[C@H](CCC(=O)O)NC(=O)[C@H](CC(C)C)NC(=O)[C@H](CC(C)C)NC(=O)[C@H](CCCNC(=N)N)NC(=O)[C@H](CO)NC(=O)C(C)(C)NC(=O)[C@H](CC(=O)O)NC(=O)[C@H](CO)NC(=O)[C@@H](NC(=O)[C@H](Cc1ccccc1)NC(=O)[C@@H](NC(=O)CNC(=O)[C@H](CCC(=O)O)NC(=O)C(C)(C)NC(=O)[C@@H](N)Cc1c[nH]cn1)[C@@H](C)O)[C@@H](C)O)C(=O)N[C@@H](CCC(N)=O)C(=O)N[C@@H](Cc1c[nH]c2ccccc12)C(=O)N[C@@H](CC(C)C)C(=O)N[C@H](C(N)=O)C(C)C` [compound 104] (H-H[Aib]EGTFTSD[Aib]SRLLEGAALQRFIQWLV-NH2), for which the EC50 in data set [1] was 316 nM. Moreover, the Fibril formation in data set [2] came to 1348. In data set [3], the “Turbidity (pH 7)” value worked out at 0.12. Also, in data set [4], the EC50 is 0.126 nM and the “SCTR EC50/GLP1R EC50 ratio” value is reported as 2902.

In the case of `CC[C@H](C)[C@H](NC(=O)[C@H](Cc1ccccc1)NC(=O)[C@H](CCCNC(=N)N)NC(=O)[C@H](CCC(N)=O)NC(=O)[C@H](CC(C)C)NC(=O)[C@H](C)NC(=O)[C@H](C)NC(=O)CNC(=O)[C@H](CCC(=O)O)NC(=O)[C@H](CC(C)C)NC(=O)[C@H](CC(C)C)NC(=O)CNC(=O)[C@H](CO)NC(=O)C(C)(C)NC(=O)[C@H](CC(=O)O)NC(=O)[C@H](CO)NC(=O)[C@@H](NC(=O)[C@H](Cc1ccccc1)NC(=O)[C@@H](NC(=O)CNC(=O)[C@H](CCC(=O)O)NC(=O)C(C)(C)NC(=O)[C@@H](N)Cc1c[nH]cn1)[C@@H](C)O)[C@@H](C)O)C(=O)N[C@@H](CCC(N)=O)C(=O)N[C@@H](Cc1c[nH]c2ccccc12)C(=O)N[C@@H](CC(C)C)C(=O)N[C@H](C(N)=O)C(C)C` [compound 105] (H-H[Aib]EGTFTSD[Aib]SGLLEGAALQRFIQWLV-NH2), the EC50 in data set [1] is 1580 nM. This molecule registered a Fibril formation in data set [2] of 4216. In addition, the “Turbidity (pH 7)” value in data set [3] is on record as 0.12. In data set [4], the EC50 is 0.1 nM and the “SCTR EC50/GLP1R EC50 ratio” value stood at 14710.
